Reference: PubChem BioAssay (NCI)
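Results reflect a 48-hour exposure of cells in 96-well plates to compound at five concentrations. Here, GI50 denotes the concentration required for 50% inhibition of growth. TGI denotes the concentration required for complete inhibition of growth.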

Key:
Experiment in all cases: inhibition of tumour cell growth, NCI panel, 48 h
786-0 renal = tested on: 786-0 renal
A549 NSCLC = tested on: A549 NSCLC
ACHN renal = tested on: ACHN renal
BT-549 breast = tested on: BT-549 breast
CAKI-1 renal = tested on: CAKI-1 renal
CCRF-CEM leukemia = tested on: CCRF-CEM leukemia
COLO 205 colon = tested on: COLO 205 colon
DU-145 prostate = tested on: DU-145 prostate
EKVX NSCLC = tested on: EKVX NSCLC
HCC-2998 colon = tested on: HCC-2998 colon
HCT-116 colon = tested on: HCT-116 colon
HCT-15 colon = tested on: HCT-15 colon
HL-60(TB) leukemia = tested on: HL-60(TB) leukemia
HOP-62 NSCLC = tested on: HOP-62 NSCLC
HOP-92 NSCLC = tested on: HOP-92 NSCLC
HS 578T breast = tested on: HS 578T breast
HT29 colon = tested on: HT29 colon
IGROV1 ovarian = tested on: IGROV1 ovarian
K-562 leukemia = tested on: K-562 leukemia
KM12 colon = tested on: KM12 colon
LOX IMVI melanoma = tested on: LOX IMVI melanoma
M14 melanoma = tested on: M14 melanoma
MALME-3M melanoma = tested on: MALME-3M melanoma
MCF7 breast = tested on: MCF7 breast
MDA-MB-231 breast = tested on: MDA-MB-231 breast
MDA-MB-435 = tested on: MDA-MB-435
MOLT-4 leukemia = tested on: MOLT-4 leukemia
NCI-H226 lung = tested on: NCI-H226 lung
NCI-H23 lung = tested on: NCI-H23 lung
NCI-H460 lung = tested on: NCI-H460 lung
NCI-H522 lung = tested on: NCI-H522 lung
NCI/ADR-RES ovarian = tested on: NCI/ADR-RES ovarian
OVCAR-3 ovarian = tested on: OVCAR-3 ovarian
OVCAR-4 ovarian = tested on: OVCAR-4 ovarian
OVCAR-5 ovarian = tested on: OVCAR-5 ovarian
OVCAR-8 ovarian = tested on: OVCAR-8 ovarian
PC-3 prostate = tested on: PC-3 prostate
RPMI-8226 leukemia = tested on: RPMI-8226 leukemia
RXF 393 renal = tested on: RXF 393 renal
SF-268 CNS = tested on: SF-268 CNS
SF-295 CNS = tested on: SF-295 CNS
SF-539 CNS = tested on: SF-539 CNS
SK-MEL-2 melanoma = tested on: SK-MEL-2 melanoma
SK-MEL-28 melanoma = tested on: SK-MEL-28 melanoma
SK-MEL-5 melanoma = tested on: SK-MEL-5 melanoma
SK-OV-3 ovarian = tested on: SK-OV-3 ovarian
SN12C renal = tested on: SN12C renal
SNB-19 CNS = tested on: SNB-19 CNS
SNB-75 CNS = tested on: SNB-75 CNS
SR leukemia = tested on: SR leukemia
SW-620 colon = tested on: SW-620 colon
T-47D breast = tested on: T-47D breast
TK-10 renal = tested on: TK-10 renal
U251 CNS = tested on: U251 CNS
UACC-257 melanoma = tested on: UACC-257 melanoma
UACC-62 melanoma = tested on: UACC-62 melanoma
UO-31 renal = tested on: UO-31 renal

For `CN(C)CCCC1(c2ccc(F)cc2)OCc2cc(-c3cncc4ccccc34)ccc21` (centres undefined), the GI50 (786-0 renal) was 2710 nM, the TGI (786-0 renal) was 9.72 µM and the GI50 (A549 NSCLC) was 3.92 µM. The TGI (A549 NSCLC) was 16.2 µM, the GI50 (ACHN renal) was 3.34 µM and the TGI (ACHN renal) was 12.5 µM. It also gave a GI50 (BT-549 breast) of 7.45 µM, a TGI (BT-549 breast) of 20.5 µM and a GI50 (CAKI-1 renal) of 2000 nM. For the same compound, the TGI (CAKI-1 renal) was 5.88 µM, the GI50 (CCRF-CEM leukemia) was 3.45 µM and the TGI (CCRF-CEM leukemia) was 11.6 µM. It also gave a GI50 (COLO 205 colon) of 2070 nM, a TGI (COLO 205 colon) of 4.72 µM and a GI50 (DU-145 prostate) of 3.4 µM. The TGI (DU-145 prostate) was 11.8 µM, the GI50 (EKVX NSCLC) was 8.48 µM and the TGI (EKVX NSCLC) was 21.2 µM. It also gave a GI50 (HCC-2998 colon) of 1840 nM, a TGI (HCC-2998 colon) of 3.71 µM and a GI50 (HCT-116 colon) of 2940 nM. It also gave a TGI (HCT-116 colon) of 11 µM, a GI50 (HCT-15 colon) of 3.32 µM and a TGI (HCT-15 colon) of 12.6 µM. The GI50 (HL-60(TB) leukemia) was 1810 nM, the TGI (HL-60(TB) leukemia) was 4.15 µM and the GI50 (HOP-62 NSCLC) was 3.8 µM. The TGI (HOP-62 NSCLC) was 16.8 µM, the GI50 (HOP-92 NSCLC) was 1580 nM and the TGI (HOP-92 NSCLC) was 8.81 µM. It also gave a GI50 (HS 578T breast) of 2780 nM, a TGI (HS 578T breast) of 11.6 µM and a GI50 (HT29 colon) of 2360 nM. For the same compound, the TGI (HT29 colon) was 8.23 µM, the GI50 (IGROV1 ovarian) was 2880 nM and the TGI (IGROV1 ovarian) was 12.2 µM. The GI50 (K-562 leukemia) was 2020 nM, the TGI (K-562 leukemia) was 5.17 µM and the GI50 (KM12 colon) was 3.41 µM. The TGI (KM12 colon) was 12.1 µM, the GI50 (LOX IMVI melanoma) was 1720 nM and the TGI (LOX IMVI melanoma) was 3.27 µM. For the same compound, the GI50 (M14 melanoma) was 1820 nM, the TGI (M14 melanoma) was 3.77 µM and the GI50 (MALME-3M melanoma) was 1550 nM. The TGI (MALME-3M melanoma) was 3.09 µM, the GI50 (MCF7 breast) was 1890 nM and the TGI (MCF7 breast) was 4.57 µM. For the same compound, the GI50 (MDA-MB-231 breast) was 2100 nM, the TGI (MDA-MB-231 breast) was 6.57 µM and the GI50 (MDA-MB-435) was 1710 nM. It also gave a TGI (MDA-MB-435) of 3.22 µM, a GI50 (MOLT-4 leukemia) of 2390 nM and a TGI (MOLT-4 leukemia) of 6.7 µM. It also gave a GI50 (NCI-H226 lung) of 8.65 µM, a TGI (NCI-H226 lung) of 27 µM and a GI50 (NCI-H23 lung) of 5.73 µM. It also gave a TGI (NCI-H23 lung) of 20.1 µM, a GI50 (NCI-H460 lung) of 1730 nM and a TGI (NCI-H460 lung) of 3.49 µM. The GI50 (NCI-H522 lung) was 1880 nM, the TGI (NCI-H522 lung) was 4.08 µM and the GI50 (NCI/ADR-RES ovarian) was 4.89 µM. It also gave a TGI (NCI/ADR-RES ovarian) of 18.8 µM, a GI50 (OVCAR-3 ovarian) of 2940 nM and a TGI (OVCAR-3 ovarian) of 9.88 µM. The GI50 (OVCAR-4 ovarian) was 3.27 µM, the TGI (OVCAR-4 ovarian) was 13.7 µM and the GI50 (OVCAR-5 ovarian) was 5.23 µM. For the same compound, the TGI (OVCAR-5 ovarian) was 18.3 µM, the GI50 (OVCAR-8 ovarian) was 4.48 µM and the TGI (OVCAR-8 ovarian) was 19.8 µM. It also gave a GI50 (PC-3 prostate) of 3.36 µM, a TGI (PC-3 prostate) of 15 µM and a GI50 (RPMI-8226 leukemia) of 2510 nM. It also gave a TGI (RPMI-8226 leukemia) of 5.96 µM, a GI50 (RXF 393 renal) of 2510 nM and a TGI (RXF 393 renal) of 10.1 µM. It also gave a GI50 (SF-268 CNS) of 3.15 µM, a TGI (SF-268 CNS) of 13.9 µM and a GI50 (SF-295 CNS) of 2020 nM. It also gave a TGI (SF-295 CNS) of 4.2 µM, a GI50 (SF-539 CNS) of 1760 nM and a TGI (SF-539 CNS) of 3.29 µM. For the same compound, the GI50 (SK-MEL-2 melanoma) was 2140 nM, the TGI (SK-MEL-2 melanoma) was 4.74 µM and the GI50 (SK-MEL-28 melanoma) was 1750 nM. For the same compound, the TGI (SK-MEL-28 melanoma) was 3.24 µM, the GI50 (SK-MEL-5 melanoma) was 1770 nM and the TGI (SK-MEL-5 melanoma) was 3.2 µM. It also gave a GI50 (SK-OV-3 ovarian) of 5.48 µM, a TGI (SK-OV-3 ovarian) of 18.8 µM and a GI50 (SN12C renal) of 4.05 µM. For the same compound, the TGI (SN12C renal) was 17 µM, the GI50 (SNB-19 CNS) was 2350 nM and the TGI (SNB-19 CNS) was 7.4 µM. It also gave a GI50 (SNB-75 CNS) of 1660 nM, a TGI (SNB-75 CNS) of 6.86 µM and a GI50 (SR leukemia) of 3 µM. It also gave a TGI (SR leukemia) of 17.9 µM, a GI50 (SW-620 colon) of 3.08 µM and a TGI (SW-620 colon) of 11.5 µM. For the same compound, the GI50 (T-47D breast) was 2430 nM, the TGI (T-47D breast) was 7.28 µM and the GI50 (TK-10 renal) was 2830 nM. The TGI (TK-10 renal) was 12.2 µM, the GI50 (U251 CNS) was 2220 nM and the TGI (U251 CNS) was 5.7 µM. The GI50 (UACC-257 melanoma) was 2020 nM, the TGI (UACC-257 melanoma) was 4 µM and the GI50 (UACC-62 melanoma) was 2240 nM. It also gave a TGI (UACC-62 melanoma) of 5.17 µM, a GI50 (UO-31 renal) of 1530 nM and a TGI (UO-31 renal) of 4.41 µM.
